Values of other authors, collected in patent US12023346B1, “Compositions and methods for treating epilepsy” (POVIVA CORP, priority 2023, dated 2024).
Where two headings read alike, the source gives them in different places.

**Q.** What does the source list for C=C(C)[C@@H]1CCC(C)=C[C@H]1c1c(O)cc(CCCCC)cc1O [Cannabidiol, 2-[(1R,6R)-6-Isopropenyl-3-methylcyclohex-2-en-1-yl]-5-pentylbenzene-1,3-diol]?
**A.** Plasma concentration on Day 22 at target CBD dose, 5 hours, Mean (SD) (5 mg/kg/day (N = 10)): 72.1 (49.0) ng/mL; Plasma concentration on Day 22 at target CBD dose, […], Mean (SD) (5 mg/kg/day (N = 10)): 130 (170) ng/mL; Plasma concentration on Day 1 at starting CBD dose, 5 hours, Mean (SD) (5 mg/kg/day group (N = 10)): 10.0 (5.74) ng/ml; Plasma concentration on Day 1 at starting CBD dose, Pre-dose, Mean (SD) (5 mg/kg/day group (N = 10)): 0 ng/mL; Plasma concentration on Day 1 at starting CBD dose, […], Mean (SD) (5 mg/kg/day group (N = 10)): 37.6 (53.7) ng/ml; Plasma concentration on Day 22 at target CBD dose, 5 hours, Mean (SD) (10 mg/kg/day (N = 8)): 288 (345) ng/mL; Plasma concentration on Day 22 at target CBD dose, […], Mean (SD) (10 mg/kg/day (N = 8)): 242 (159) ng/mL; Plasma concentration on Day 1 at starting CBD dose, 5 hours, Mean (SD) (10 mg/kg/day group (N = 8)): 11.3 (11.7) ng/ml; Plasma concentration on Day 1 at starting CBD dose, Pre-dose, Mean (SD) (10 mg/kg/day group (N = 8)): 0 ng/mL; Plasma concentration on Day 1 at starting CBD dose, […], Mean (SD) (10 mg/kg/day group (N = 8)): 34.4 (32.1) ng/ml; Plasma concentration on Day 22 at target CBD dose, 5 hours, Mean (SD) (20 mg/kg/day (N = 9)): 308 (321) ng/mL; Plasma concentration on Day 22 at target CBD dose, […], Mean (SD) (20 mg/kg/day (N = 9)): 380 (370) ng/mL; Plasma concentration on Day 1 at starting CBD dose, 5 hours, Mean (SD) (20 mg/kg/day group (N = 9)): 25.3 (42.4) ng/ml; Plasma concentration on Day 1 at starting CBD dose, Pre-dose, Mean (SD) (20 mg/kg/day group (N = 9)): 0 ng/mL; Plasma concentration on Day 1 at starting CBD dose, […], Mean (SD) (20 mg/kg/day group (N = 9)): 29.3 (28.5) ng/ml
